# Laboratory results from paper PMC7615343, “Fluorination Influences the Bioisostery of Myo-Inositol Pyrophosphate Analogs” (Chemistry (Weinheim an der Bergstrasse, Germany), 2023).
# Target: T1, PPIP5K2^1-366 (human PPIP5K2 kinase domain) (Homo sapiens, UniProt O43314)
# T1 construct: one comprised residues 1–366; made in house
# T1 sequence (O43314 1-366): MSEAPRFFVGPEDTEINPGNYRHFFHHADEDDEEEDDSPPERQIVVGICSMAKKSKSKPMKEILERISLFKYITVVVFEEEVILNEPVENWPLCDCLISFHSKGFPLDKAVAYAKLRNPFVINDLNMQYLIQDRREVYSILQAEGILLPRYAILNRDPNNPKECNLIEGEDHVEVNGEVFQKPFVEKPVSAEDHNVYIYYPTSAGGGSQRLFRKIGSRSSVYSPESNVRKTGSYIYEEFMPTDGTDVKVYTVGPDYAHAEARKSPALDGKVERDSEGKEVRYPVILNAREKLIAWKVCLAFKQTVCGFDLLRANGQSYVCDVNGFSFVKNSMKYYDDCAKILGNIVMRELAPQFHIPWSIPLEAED
# Experiment: PPIP5K2KD reverse kinase assay (ATP formation from ADP and 1,5(PP)2-IP4)
# Type: biochemical
# Details: 25 °C, 30 min, 0.1 mM ADP, 100 nM [1,5]PP-IP4, ATP production measured; this work; read-out: IC50, inhibition of the reverse kinase activity of PPIP5K2^1-366
# Description: An alternative method to study the interaction of PP-IP5 analogs with PPIP5K2^KD is to derive IC50 values for inhibition of a “reverse-kinase” assay that records ATP formation when the enzyme is incubated with ADP and 1,5(PP)2-IP4.[29, 31] This approach avoids the need to use radiolabeled material and HPLC analysis. Moreover, the assay of ATP production is inherently more sensitive compared to measuring ATP consumption. […] In addition to the catalytic pocket, the PPIP5K2 kinase reaction cycle also utilizes a surface-mounted substrate capture site; the latter was initially identified through its binding of 5PA-IP5.[31] […] In this case, the higher affinity of the capture site for less polar molecules may explain why 5PA-IP5 is the only analog so far detected in this site.
# For the reverse kinase assay, PPIP5K2^1-366 (2.5 μg mL^-1) was incubated at 25 °C for 30 min with 20 μL buffer containing 20 mM Tris-HCl, pH 7.5, 10 mM MgCl2, 0.1 mM ADP, 100 nM [1,5]PP-IP4 and various concentrations of either 5PCP-IP5 or 5PCF2P-IP5. The generated ATP was measured using a Molecular Probes ATP Determination kit (Thermo Fisher Scientific catalog number A22066). The IC50 value was calculated using GraphPad Prism. […]
# Diffraction data were collected using APS beamlines 22 -ID. […] The structure was determined using rigid body and direct Fourier synthesis, and refined with t he equivalent and expanded test sets. […]
row,IC50,SMILES
1,223 nM,O=P(O)(O)CP(=O)(O)O[C@H]1[C@H](OP(=O)(O)O)[C@@H](OP(=O)(O)O)[C@@H](OP(=O)(O)O)[C@@H](OP(=O)(O)O)[C@@H]1OP(=O)(O)O [5PCP-IP5]
2,583 nM,O=P(O)(O)O[C@H]1[C@@H](OP(=O)(O)O)[C@H](OP(=O)(O)O)[C@@H](OP(=O)(O)C(F)(F)P(=O)(O)O)[C@H](OP(=O)(O)O)[C@H]1OP(=O)(O)O [5PCF2P-IP5]
